From patent publication EP0006987A1, “2,4-Diamino-5-benzylpyrimidines, especially for the treatment of microbial infections, pharmaceutical compositions containing these compounds and processes for preparing these compounds” (THE WELLCOME FOUNDATION LIMITED, priority 1978, dated 1980) come the findings set out here.

For orientation: LD50 means the dose expected to kill half of the subjects tested.

Counter-ions that a name gives are not always drawn. Like-named read-outs stand apart in the source and are kept apart here. Marks after values point to notes of the source that are not given here.

The subject of data set [1] is Neisseria gonorrhoeae. The data set is described as follows: Antigonococcal activity, MIC by agar dilution, relative to trimethoprim. Format: cell-based. To be noted: expressed as activity versus TMP activity, 17 strains; for Antigonococcal Activity v.N.gonorrhaeae G.C.A.: Difco G.C. Agar; for Antigonococcal Activity v.N.gonorrhaeae W.S.T.A. (Repeat Examination) / Antigonococcal Activity v.N.gonorrhaeae W.S.T.A.: Wellcotest Sensitivity Test Agar; for Antigonococcal Activity v.N.gonorrhaeae W.S.T.A. (Repeat Examination): standardised inocula, 48 hours incubation; for Antigonococcal Activity v.N.gonorrhaeae W.S.T.A.: Screening Examination, 24 hours incubation. The method, then:
(§1) The antigonococcal activity of 2,4-diamino-(3,5-diethyl-4-hydroxybenzyl)pyrimidine (compound 1), 2,4-diamino-(4-hydroxy-3,5-di-n-propylbenzyl)pyrimidine (compound 2), 2,4-diamino-(3-ethyl-4-hydroxy-5-n-propylbenzyl)pyrimidine (compound 3),24-diamino-(4-hydroxy-3,5-di-i-propylbenzyl)pyrimidine (compound 4) and 2,4-·diamino-·(3,5-di--t-butyl-4-hydroxybenzyl) pyrimidine (compound 5) and the antimeningococcal activity of compounds 2,3 and 4 were determined […] by the following methods. The activities were measured against 17 strains of Neisseria gonorrhoeae and 5 strains of Neisseria meningitidis in Wellcotest Sensitivity Test Agar supplemented with 5$ heated horse blood and 5% unheated lysed horse blood, In practice, 5% blood was added to 500ml quantities of the medium at 56°C and, after being placed in a 80°C water bath for 15 minutes and then cooled to 56°C, the lysed blood and the test compounds were added. The medium was then immediately poured into plates. The test compounds were dissolved as the isothionates.
(§2) In the Screening Examination, which consisted of 6 separate tests, the minimum inhibitory concentrations (MIC's) were determined in one-third interval dilutions and then reexamined in one-half interval dilution.
(§3) The inoculum in the Screening Examination was from an 18-hour Mueller-Hinton heated-blood broth culture, and applied with a lmm loop which was streaked along lcm.. Because the amount of growth produced by the strains varied, the inocula was not constant in these tests, in the Repeat Examination, the inocula were standardised to give "just confluent'' growth. The MIC's were read as that concentration which produced 90% or more inhibition of growth as compared macroscopically with that of the control growth. The incubation period for the Screening Examination was 24 hours and for the Repeat Examination 48 hours.
(§4) As standards, Escherichia coli (CN 314 ) and trimethoprim (TMP) were included in each test.
(§5) Using the above method the activities of compound 5 was measured against the same 17 strains of Neisseria gonorrhoeae and 5 strains of Neisseria meningitidis in Difco G.C. Agar.
In general terms: In agar dilution, organisms are placed on agar that contains the substance at set levels.

The nature of data set [2]: Blood, urine and tissue concentrations in mice after oral administration (microbiological assay with Bacillus pumilus). Format: in vivo. To be noted: 2mg/mouse P.O.; for Urine Direct (percentage in brackets): appears to be direct urine concentration as percent of that after Glusalase; for concentration at 1 h / concentration at 2 h / concentration at 4 h: po; for concentration at 1 h: 1 hour after dosing, read-out: Conc. in blood at 1HR; for concentration at 2 h: 2 hours after dosing, read-out: Conc. in blood at 2HR. The protocol: Also shown in Table 1 is the concentration of each of the compounds in the blood urine and tissues of mice after oral administration. These concent rations were determined as described hereafter. The compounds, suspended in 0.1% methylcellulose, were administered by stomach tube to groups of 3 mice, the dose was 2.0mg per 20g mouse and blood was collected from the orbital sinus at 1, 2 and 4 hours after the dosing. Urine was collected directly from each animal at the 4th hour, after which the animals were killed. Liver, lung, brain and muscle was taken from each animal and homogenised in an equal volume (w/v) of water in a Polytron Homogenizer. The suspensions were taken to be 1:2 extracts of the tissues.
The concentrations of the drugs were determined microbiologically, using Bacillus pumilus, those in the urine determined both before and after 18 hours incubation with Glusalase (gluecuronidase and sulfatase).

The subject of data set [3] is Neisseria meningitidis. In words: Antimeningococcal activity, MIC by agar dilution, relative to trimethoprim. To be noted: expressed as activity versus TMP activity; 5 strains. The class given is cell-based. The method, then: as §1, §2, §3, §4, §5
The subject of data set [4] is Escherichia coli (CN 314 ). The data set is described as follows: Activity against standard organism E. coli, MIC by agar dilution, relative to trimethoprim. Format: cell-based. To be noted: expressed as activity versus TMP activity. The method, then:
The medium was then immediately poured into plates. The test compounds were dissolved as the isothionates. […] Because the amount of growth produced by the strains varied, the inocula was not constant in these tests, in the Repeat Examination, the inocula were standardised to give "just confluent'' growth. The MIC's were read as that concentration which produced 90% or more inhibition of growth as compared macroscopically with that of the control growth. The incubation period for the Screening Examination was 24 hours and for the Repeat Examination 48 hours. As standards, Escherichia coli (CN 314 ) and trimethoprim (TMP) were included in each test.

A short description of data set [5]: Acute oral toxicity in mice. To be noted: mouse, in vivo.
Data set [6] can be described thus: Acute oral toxicity in rats. To be noted: rat, in vivo.
[7] abbreviates: blood, 4 hours after dosing, read-out: Conc. in blood at 4HR.
Setting [8] is: brain, 4 hours, tissue homogenate, read-out: Concentration at 4HRS in: Brain.
Where [9] appears, read: liver, 4 hours, tissue homogenate, read-out: Concentration at 4HRS in: Liver.
Where [10] appears, read: muscle, 4 hours, tissue homogenate, read-out: Concentration at 4HRS in: Muscle.
Where [11] appears, read: 4 hours, urine after 18 hours incubation with Glusalase (glucuronidase and sulfatase), read-out: Concentration at 4HRS in: Urine After glacolase.
Where [12] appears, read: 4 hours, urine before incubation with Glusalase, read-out: Concentration at 4HRS in: Urine Direct.
Where [13] appears, read: lung, 4 hours, tissue homogenate, read-out: Concentration at 4HRS in: Lung.

In the case of `COc1cc(Cc2cnc(N)nc2N)cc(OC)c1OC` [TMP, 2,4-diamino-5-(3,4,5-trimethoxybenzyl)pyrimidine, reference compound], in data set [1], the “Antigonococcal Activity v.N.gonorrhaeae G.C.A.” value stood at 1. Also, the “Antigonococcal Activity v.N.gonorrhaeae W.S.T.A. (Repeat Examination)” value in data set [1] is on record as 1. Besides, the “Antigonococcal Activity v.N.gonorrhaeae W.S.T.A.” value in data set [1] came out at 1. In data set [2] (4 hours), the “Urine Direct (percentage in brackets)” value is given as 50%. In data set [2] (blood), the concentration at 1 h was 2150 ng/mL. The concentration at 2 h in data set [2] (blood) came to 280 ng/mL. In addition, the concentration at 4 h in data set [2] (setting [7]) is less than 0.02 µg/mL; in data set [2] (setting [8]) it was less than 0.04 µg/mL; in data set [2] (setting [9]), 1.08 µg/mL; in data set [2] (setting [10]), less than 0.04 µg/mL; in data set [2] (setting [11]), 400 µg/mL; in data set [2] (setting [12]), 200 µg/mL. Also, in data set [3], the “Antigonococcal Activity v.N.meningitidis” value amounted to 1. In data set [4], the “Antigonococcal Activity v.E.coli (CN314)” value came out at 1.

Turning to `CCCc1cc(Cc2cnc(N)nc2N)cc(CC)c1O` [COMPOUND 3, 2,4-diamino-(3-ethyl-4-hydroxy-5-n-propylbenzyl)pyrimidine], the “Antigonococcal Activity v.N.gonorrhaeae W.S.T.A. (Repeat Examination)” value in data set [1] is given as 18^**. Moreover, the “Antigonococcal Activity v.N.gonorrhaeae W.S.T.A.” value in data set [1] was 21. Also, the “Urine Direct (percentage in brackets)” value in data set [2] (4 hours) is on record as 2.2%. Further, the concentration at 1 h in data set [2] (blood) stood at 880 ng/mL. For the same compound, the concentration at 2 h in data set [2] (blood) came out at 900 ng/mL. The concentration at 4 h in data set [2] (setting [7]) amounted to 0.8 µg/mL; in data set [2] (setting [8]), 0.44 µg/mL; in data set [2] (setting [9]) it was 5 µg/mL; in data set [2] (setting [13]), 3.6 µg/mL; in data set [2] (setting [10]) it was 0.21 µg/mL; in data set [2] (setting [11]) it was 1800 µg/mL. In addition, in data set [2] (setting [12]), the concentration at 4 h amounted to 39 µg/mL. The “Antigonococcal Activity v.N.meningitidis” value in data set [3] was determined as 7. Besides, in data set [4], the “Antigonococcal Activity v.E.coli (CN314)” value is more than 0.1.

Consider `CC(C)c1cc(Cc2cnc(N)nc2N)cc(C(C)C)c1O` [2,4-diamino-5-(3,5-diisopropyl-4-hvdroxyberzyl) pyrimidine lactate salt], for which the median lethal dose (LD50) was 2890 mg/kg in data set [5] (female mice, read-out: LD50 (mice) female); 2830 mg/kg in data set [5] (male mice, read-out: LD50 (mice) male); more than 100 mg/kg in data set [6].

Take `CC(C)c1cc(Cc2cnc(N)nc2N)cc(C(C)C)c1O` [COMPOUND 4, 24-diamino-(4-hydroxy-3,5-di-i-propylbenzyl)pyrimidine]: the “Antigonococcal Activity v.N.gonorrhaeae G.C.A.” value in data set [1] is 13. Also, in data set [1], the “Antigonococcal Activity v.N.gonorrhaeae W.S.T.A. (Repeat Examination)” value is recorded as 17^**. Also, the “Antigonococcal Activity v.N.gonorrhaeae W.S.T.A.” value in data set [1] stood at 18. Moreover, the “Urine Direct (percentage in brackets)” value in data set [2] (4 hours) was 50%. For the same compound, the concentration at 1 h in data set [2] (blood) is 1380 ng/mL. Moreover, the concentration at 2 h in data set [2] (blood) was 1080 ng/mL. Also, the concentration at 4 h in data set [2] (setting [7]) was 0.65 µg/mL; in data set [2] (setting [8]), 0.46 µg/mL; in data set [2] (setting [9]) it was 8.3 µg/mL; in data set [2] (setting [13]), 2.6 µg/mL; in data set [2] (setting [10]), less than 0.03 µg/mL; in data set [2] (setting [11]), 190 µg/mL. In data set [2] (setting [12]), the concentration at 4 h came out at 95 µg/mL. The “Antigonococcal Activity v.N.meningitidis” value in data set [3] was 7. In addition, the “Antigonococcal Activity v.E.coli (CN314)” value in data set [4] turned out to be 0.03.

For the compound `CC(C)(C)c1cc(Cc2cnc(N)nc2N)cc(C(C)(C)C)c1O` [COMPOUND 5, 2,4-·diamino-·(3,5-di--t-butyl-4-hydroxybenzyl) pyrimidine], the “Antigonococcal Activity v.N.gonorrhaeae G.C.A.” value in data set [1] came to 7. The “Urine Direct (percentage in brackets)” value in data set [2] (4 hours) came out at 42%. The concentration at 1 h in data set [2] (blood) came out at 4250 ng/mL. In addition, the concentration at 2 h in data set [2] (blood) turned out to be 4000 ng/mL. Besides, the concentration at 4 h in data set [2] (setting [7]) was 3 µg/mL; in data set [2] (setting [8]), 4.4 µg/mL; in data set [2] (setting [9]), 6 µg/mL; in data set [2] (setting [13]), 11.2 µg/mL; in data set [2] (setting [10]), less than 0.26 µg/mL; in data set [2] (setting [11]), 240 µg/mL. Also, the concentration at 4 h in data set [2] (setting [12]) is 100 µg/mL.

With `CCc1cc(Cc2cnc(N)nc2N)cc(CC)c1O` [COMPOUND 1, 2,4-diamino-(3,5-diethyl-4-hydroxybenzyl)pyrimidine], the “Antigonococcal Activity v.N.gonorrhaeae W.S.T.A.” value in data set [1] came out at 7. Moreover, in data set [2] (4 hours), the “Urine Direct (percentage in brackets)” value is 7%. The concentration at 1 h in data set [2] (blood) was 1110 ng/mL. In data set [2] (blood), the concentration at 2 h came to 410 ng/mL. For the same compound, the concentration at 4 h in data set [2] (setting [7]) is 0.4 µg/mL; in data set [2] (setting [8]) it was 0.34 µg/mL; in data set [2] (setting [9]), 1.94 µg/mL; in data set [2] (setting [13]), 1.75 µg/mL; in data set [2] (setting [10]) it was less than 0.03 µg/mL; in data set [2] (setting [11]) it was 790 µg/mL. Further, the concentration at 4 h in data set [2] (setting [12]) is 56 µg/mL.

In the case of `CCCc1cc(Cc2cnc(N)nc2N)cc(CCC)c1O` [COMPOUND 2, 2,4-diamino-(4-hydroxy-3,5-di-n-propylbenzyl)pyrimidine], in data set [1], the “Antigonococcal Activity v.N.gonorrhaeae W.S.T.A. (Repeat Examination)” value is recorded as 17^**. The “Antigonococcal Activity v.N.gonorrhaeae W.S.T.A.” value in data set [1] was 21. The “Urine Direct (percentage in brackets)” value in data set [2] (4 hours) stood at 2.5%. For the same compound, in data set [2] (blood), the concentration at 1 h was 1360 ng/mL. The concentration at 2 h in data set [2] (blood) is 500 ng/mL. In addition, the concentration at 4 h in data set [2] (setting [7]) was 0.44 µg/mL; in data set [2] (setting [8]), 0.5 µg/mL; in data set [2] (setting [9]) it was 3.75 µg/mL; in data set [2] (setting [13]), 1.8 µg/mL; in data set [2] (setting [10]), less than 0.03 µg/mL; in data set [2] (setting [11]) it was 650 µg/mL. For the same compound, the concentration at 4 h in data set [2] (setting [12]) came to 16 µg/mL. For the same compound, in data set [3], the “Antigonococcal Activity v.N.meningitidis” value worked out at 11. The “Antigonococcal Activity v.E.coli (CN314)” value in data set [4] was 0.03.
